Drawing on the METLIN SMRT retention time set (Domingo-Almenara et al. 2019), this text covers RP-LC retention time for 79 compounds.

Each structure is given as a SMILES string.

The nature of the series: gradient 5% acetonitrile 3 min, to 50% in 2 min, to 85% in 15 min, held 3 min, 100 µL/min. As to conditions: column: Zorbax Extend-C18 2.1 x 50 mm; eluents: water / acetonitrile, 0.1% formic acid. A digest of the protocol:
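Retention times come from adduct peaks that were picked computationally and then checked by hand. The standards, pure and pooled in mixtures of ~100 molecules, were run on a Zorbax Extend-C18 column (2.1 × 50 mm, 1.8 μm) at 100 μL/min with water and acetonitrile, each with 0.1% formic acid. Detection was by quadrupole time-of-flight mass spectrometry in positive and negative ionization mode, with a dead volume of 40 μL and a dwell volume of 900 μL.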
`Cc1cc(C)n(-c2nc(C)c(C(=O)Nc3ccccc3F)s2)n1` displayed an RP-LC retention time of 1120 s. Compound `O=C(CSc1nnc2c(=O)n(-c3ccc(F)cc3)ccn12)c1ccc(F)cc1` registered an RP-LC retention time of 802 s. With `COc1cccc(NC(=O)C2CCN(S(=O)(=O)c3ccc4c(c3)sc(=O)n4C)CC2)c1` the figure was 845 s; with `Cc1ccc(NC(=O)CSc2cc(N3CCC(C)CC3)ncn2)c(C)c1`, 1100 s. With `COc1ccc(N2C=C(C#N)S(=O)(=O)c3ccc(F)cc32)cc1OC` the figure was 893 s; with `O=S(=O)(c1ccc2c(c1)CCCC2)N1CCCn2nc(-c3ccncc3)cc2C1`, 706 s. Consider `O=C(C1CCN(c2cncnc2N2CCCCC2)CC1)N1CCOCC1`, for which the RP-LC retention time stood at 593 s. `Cc1noc(C)c1Cc1c(C(=O)N2CCC3(CCC3O)CC2)noc1C` (centres undefined) came in with an RP-LC retention time of 680 s. With `Cc1nc2cc(N3CC(C(=O)Nc4cccc(C)c4C)CC3=O)ccc2o1` (centres undefined) the figure was 785 s. `COCCN1C(=O)c2cccn2CC1CNS(=O)(=O)c1cccc2nsnc12` (centres undefined) gave an RP-LC retention time of 677 s. For `O=C(NCc1csc(C2CCN(C(=O)c3ccc(F)cc3F)CC2)n1)C1CC1`, the RP-LC retention time came to 697 s. On to `CCc1nc(-n2cccc2)sc1C(=O)Nc1cccc(C)c1`, for which the RP-LC retention time worked out at 1150 s.

In turn, `CCc1noc2nc(C)n(CC(=O)NCCc3ccccc3)c(=O)c12` yielded an RP-LC retention time of 800 s. For the compound `Cc1csc(-c2cc(S(=O)(=O)NCCC(C)C)cn2CC(=O)N2CCCCC2)n1`, the RP-LC retention time came out at 1010 s. The compound `CN(C)c1cccc(C(=O)N2CCc3nc[nH]c3C2)c1` yielded an RP-LC retention time of 578 s.

`CC(=O)c1ccc(S(=O)(=O)N2CCCC(C)(C(=O)NCc3ccc(F)cc3)C2)cc1` (centres undefined) came in with an RP-LC retention time of 876 s. The compound `CCCn1c(=O)c(C)nc2cc(-c3noc(/C=C/c4ccc(OC)cc4)n3)ccc21` returned an RP-LC retention time of 1210 s. `CC(C)Cc1nc(C2CN(C(=O)CC3CCCC3)CC23CCCC3)no1` (centres undefined) came in with an RP-LC retention time of 1210 s. Compound `Cc1ccc(C(C)C)cc1S(=O)(=O)Nc1cccc(-c2cn3ccccc3n2)c1` had an RP-LC retention time of 739 s. With `Cc1noc(COC2CCCN(C(=O)C3(c4ccccc4)CC3)C2)n1` (centres undefined) the figure was 791 s; with `O=C(NCc1ccc(F)cc1)C1CCN(C(=O)c2ncn3c2COC(c2ccc(Cl)cc2)C3)CC1` (centres undefined), 842 s. Compound `COc1cc([N+](=O)[O-])cc2sc(NC(=O)c3cc(=O)c4ccccc4o3)nc12` came in with an RP-LC retention time of 877 s. `CN1C(=O)c2cccnc2Sc2cc(NC(=O)Cc3ccccc3Cl)ccc21` showed an RP-LC retention time of 812 s. The compound `O=C(Nc1ccc(Cl)cc1)N1CCC(N2CCN(Cc3ccccc3)C(=O)C2=O)CC1` registered an RP-LC retention time of 764 s. `CCOC(=O)Nc1ccc2nc(-c3cscn3)[nH]c2c1` gave an RP-LC retention time of 651 s.

Take `O=C(Cc1ccccc1Br)N1CCN(c2cc(-c3ccc(F)cc3)[nH]n2)CC1`: the RP-LC retention time came out at 867 s. `Cc1cnc(C2CC2)n1CCNS(=O)(=O)Cc1ccccc1` yielded an RP-LC retention time of 634 s. Take `COc1ccc(CC(=O)N2CCC3(CC2)NC(=O)c2ccccc2N3C)cc1OC`: the RP-LC retention time was determined as 711 s. `CCS(=O)(=O)c1ccc2c(c1)N(Cc1nc(-c3ccc(OC)c(OC)c3)no1)C(=O)CO2`: the RP-LC retention time was determined as 817 s. With `CCC(=O)Nc1ccc(CCc2nc3ccc(C(=O)NC(C)CCc4ccccc4)cc3[nH]2)cc1` (centres undefined) the figure was 714 s. With `Cc1cc2[nH]c(=O)[nH]c2cc1S(=O)(=O)Nc1cccc(Cl)c1` the figure was 690 s; with `CCc1cccc(C)c1NC(=O)Cn1c(=O)n(-c2ccccc2)c(=O)c2c1cc(C)n2C`, 833 s; with `O=C(NCc1ccccc1C(F)(F)F)C1CCN(c2cncnc2N2CCCC2)CC1`, 695 s.

The compound `CCCC(=O)Nc1cc2c(cc1S(=O)(=O)c1ccc(C)cc1)n(C)c(=O)n2C` yielded an RP-LC retention time of 824 s.

`COc1ccc(OC)c(S(=O)(=O)Nc2ccc(Oc3nc4ccccc4n4cnnc34)cc2)c1` displayed an RP-LC retention time of 766 s. With `Cc1ccc(Cl)cc1NC(=O)NC(C)C(=O)N1CCc2ccccc21` (centres undefined) the figure was 945 s.

In turn, `Cc1ccc(Cn2nnc3cc(C(=O)N4CCN(c5ncccn5)CC4)ccc32)cc1` came in with an RP-LC retention time of 822 s.

Turning to `CC1=C(C(=O)Nc2ccccc2F)C(c2ccccc2Br)NC(=O)N1` (centres undefined), the RP-LC retention time was determined as 672 s. Regarding `CCOC(=O)c1ccc(N(C)c2csc(-c3ccccc3)n2)cc1`, the RP-LC retention time worked out at 1270 s. In turn, `Cc1ccc(-c2cc3c(=O)n(Cc4noc(CN5CCN(C)CC5)n4)ccn3n2)cc1C` returned an RP-LC retention time of 662 s. `CCn1nccc1C(=O)Nc1cccc(-c2nnc3n2CCCC3)c1` yielded an RP-LC retention time of 644 s. In turn, `CCOc1ccc(S(=O)(=O)N2CCCC(C(=O)NCc3ccccc3)C2)cc1` (centres undefined) yielded an RP-LC retention time of 878 s. On to `O=C(c1ccc(F)c(Cl)c1)N1CCCC(c2nnc(-c3ccccc3)o2)C1` (centres undefined), for which the RP-LC retention time stood at 913 s. In turn, `O=S(=O)(NC1CCCCCC1)c1ccc(-c2nnc(C3CC3)o2)o1` returned an RP-LC retention time of 920 s. The compound `CCN1CCN(Cc2nc(-c3ccc(N4CCCC(C)C4)nc3)no2)CC1` (centres undefined) came in with an RP-LC retention time of 610 s.

Take `CN1C(=O)c2cccnc2Sc2cc(NC(=O)Cc3ccc(F)cc3)ccc21`: the RP-LC retention time is 834 s. The compound `CNC(=O)c1nc(C(C)(C)NC(=O)c2cnccn2)nc2c1OCO2` returned an RP-LC retention time of 631 s. In turn, `Cc1c(NC(=O)Nc2c(Cl)cccc2Cl)c(=O)n(-c2ccccc2)n1C` had an RP-LC retention time of 751 s.

For the compound `CCCCC(=O)Nc1ccc2nc(N3CCN(c4cc(Cl)ccc4C)CC3)cc(C(=O)O)c2c1`, the RP-LC retention time came out at 851 s. Consider `Cc1nn(-c2ccc(N3CCCCC3)nn2)c(C)c1CCC(=O)NCc1ccco1`, for which the RP-LC retention time worked out at 667 s.

In turn, `CC(=O)N1CCc2c([nH]c3ccccc23)C12C(=O)Nc1ccccc12` (centres undefined) displayed an RP-LC retention time of 721 s.

Regarding `CCC(=O)NCc1nc2c(n1CC)CN(C(=O)c1cccc(C(F)(F)F)c1)CC2`, the RP-LC retention time was found to be 603 s.

The compound `Cc1cc(N2CCC(NC(=O)Nc3ccccc3Cl)C2=O)ccc1F` (centres undefined) showed an RP-LC retention time of 878 s. As for `CCC1CCCCN1CCNC(=O)Cn1c(=O)n(-c2ccccc2)c2ncccc21` (centres undefined), the RP-LC retention time was determined as 597 s. `O=C(CSc1ccc(-c2cccs2)nn1)N1CCN(c2ccccc2)CC1` showed an RP-LC retention time of 848 s. In the case of `CCOC(=O)c1sc(N2CCN(c3ccccc3)CC2)nc1N`, the RP-LC retention time worked out at 931 s.

Consider `COc1ccc(-c2nc(NCCC3=CCCCC3)c3ccccc3n2)cc1`, for which the RP-LC retention time came to 933 s. `Cc1c(-c2cccc(NC(=O)c3cccs3)c2)nc2ncccn12` had an RP-LC retention time of 638 s.

Consider `COc1ccc(OC)c(S(=O)(=O)NCC(O)Cc2ccccc2)c1` (centres undefined), for which the RP-LC retention time is 736 s. On to `CCC(CN1CCOCC1)NC(=O)c1c2c(cn(-c3ccccc3)c1=O)C(=O)CC(C)(C)C2` (centres undefined), for which the RP-LC retention time turned out to be 661 s. `CCNC(=O)c1cccc(Nc2c(-c3ccc(SC)cc3)nc3cnccn23)c1`: the RP-LC retention time was 887 s. Consider `COc1ccc(/C=C2\COc3ccc(C)cc3C2=O)cc1O`, for which the RP-LC retention time stood at 1050 s.

`Cc1cc(C)cc(NC(=O)N2CC(c3nc(C)no3)C3(CCOCC3)C2)c1` (centres undefined) had an RP-LC retention time of 706 s. For `COc1cccc(NC(=O)N2CCN(c3ccc(Nc4cc(C)ccn4)nn3)CC2)c1`, the RP-LC retention time came out at 588 s. `O=C1c2ccccc2C(=O)c2c(NCCNCCO)ccc(O)c21` yielded an RP-LC retention time of 634 s. On to `O=C(Cn1cccc1-c1nnc(-c2ccccc2)o1)N1CCN(C(=O)c2ccco2)CC1`, for which the RP-LC retention time amounted to 774 s. With `CC1=C(c2ccc(F)cc2)S(=O)(=O)N=C1N1CCCN(C(=O)NC(C)(C)C)CC1` the figure was 602 s; with `COc1ccc(-c2csc(NC(=O)Cn3c(=O)oc4ccccc43)n2)cc1`, 933 s; with `CCOC(=O)c1c(S(=O)(=O)NCCN2CCc3ccccc3C2)c(C)n(C)c1C`, 675 s. With `Cc1ccc(Cl)cc1-n1ncc2c(=O)n(Cc3nc(-c4cccc(C(F)(F)F)c4)no3)cnc21` the figure was 1180 s; with `COc1ccc(NC(=O)Nc2c(-c3ccc(C)cc3)nc3ccccn23)cc1Cl`, 712 s; with `CCn1cc(C(=O)NC2CCCC2)c2nn(-c3ccccc3)c(=O)c-2c1`, 851 s. With `Cc1nn(-c2ccccc2)c(C)c1S(=O)(=O)N1CCC(C(=O)NC2CC2)CC1` the figure was 744 s.

As for `Cc1ccc(C(=O)OCC(=O)c2ccc([N+](=O)[O-])cc2)o1`, the RP-LC retention time was 688 s.

Consider `COCCN1CC2(CCN(S(=O)(=O)c3ccc(F)cc3F)CC2)C1c1ccncc1` (centres undefined), for which the RP-LC retention time was determined as 623 s. With `Cc1cc(C)cc(NC(=O)Cn2nc3c(N(C)C4CCCCC4)nccn3c2=O)c1`, the RP-LC retention time was 846 s. `Cc1ccc(S(=O)(=O)N2CCCCCC2c2nnc(C)o2)c(C)c1` (centres undefined) came in with an RP-LC retention time of 862 s. With `COCC1CN(C2CCC2)CC12CCN(C(=O)C1CCN(C(C)=O)CC1)CC2` (centres undefined) the figure was 561 s. With `O=C(CN1CCC(COCc2ccccc2)CC1)Nc1ccc2c(c1)OCCO2` the figure was 605 s.
